Assay results reported in patent US20250235545A1, “POLYPEPTIDE CONJUGATE AND USE THEREOF” (SHANGHAI CHIXI BIOMEDICAL TECHNOLOGY CO., LTD, priority 2024, published 2025).
Converted amounts (≈) assume the structure as drawn. Like-named read-outs stand apart in the source and are kept apart here. Where a SMILES comes first, the peptide text is derived from it. The star is where a group is joined. X5 = CC[C@@]1(O)C(=O)OCc2c1cc1n(c2=O)Cc2c-1nc1ccccc1c2CCN(CC(C)C)*; Propanoyl(3-maleimido) = O=C1C=CC(=O)N1CCC(=O)*; PEG6 = NCCOCCOCCOCCOCCOCCOCCC(=O)O

Columns and labels:
[1] = test system: A2780 ovarian cancer tumor model; assay: Efficacy in animal model of A2780 ovarian cancer, 30 mg/kg once a week for two weeks (Example 41); format: in vivo, BALB/c mice
Method: Test objective: To further compare the antitumor efficacy of different polypeptide Linkers in an animal tumor model of A2780 ovarian cancer.
Test drug: Polypeptide conjugate and normal saline control group.
8×10^6 corresponding cells were injected into right axillas of nude mice subcutaneously. […] The negative control group was administered normal saline. Administration was performed once a week for two weeks.

[2] = Homogenate activation efficiency, heart tissue (Examples 28, 37); format: in vitro ADME; conditions: pH 5.0, 37° C., 2 h
A2780 (ovarian cancer) = assay: cells; format: cell-based
Procedure, shortened: (§1)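 Cells seeded at 5,000 cells/well in RPMI1640 or DMEM high-glucose with 10% FBS and 1 mM sodium pyruvate, exposed to graded drug concentrations for 48 h at 37° C., 5% CO2; 0.1% DMSO controls. CCK8 added for ~2 h, absorbance 450 nm; survival rates and IC50 calculated.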

[3] = test system: SKBR3 (breast cancer tissue); assay: cells; format: cell-based
Procedure, shortened: as §1

SJSA-1 (sarcoma tissue) = assay: cells; format: cell-based
Procedure, shortened: as §1

[4] = test system: A549 (non-small cell lung cancer); assay: cells; format: cell-based
Procedure, shortened: as §1

[5] = test system: colo320 colorectal cancer tumor model
Procedure, shortened: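 Female BALB/c nude mice, 6–8 weeks old, received 7.5×10^6 colo320 cells subcutaneously in the right chest. Once tumors reached at least 120 mm^3 they were randomized three per group. Treatment with test agents or saline control was given once weekly for four weeks.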

[6] = Tumor homogenate activation efficiency, non-small cell lung cancer tissue (Examples 28, 37); format: in vitro ADME; conditions: pH 5.0, 37° C., 2 h
Procedure, shortened: (§2)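 Activation is reported as the fraction of free Belotecan peak area among all Belotecan-bearing peaks by HPLC. The conjugate (1 mg/ml) reacts with 100 μg homogenate for 2 h at 37° C in MES buffer, pH 5.0.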

[7] = Tumor homogenate activation efficiency, ovarian cancer tissue (Examples 28, 37); format: in vitro ADME; conditions: pH 5.0, 37° C., 2 h
Procedure, shortened: as §2

[8] = Tumor homogenate activation efficiency, colorectal cancer tissue (Example 37); format: in vitro ADME; conditions: pH 5.0, 37° C., 2 h; Table 10
Method: Buffer preparation: 50 mM PH buffer (MES), 250 mM NaCl, pH adjusted to 5.0 with 0.5 M of sodium hydroxide.
The polypeptide conjugate was prepared into a 1 mg/ml solution with pH 5.0 buffer, 100 μg of tumor tissue homogenate was added, (the tumor tissue homogenate was the homogenate of tumor tissues prepared with a Jingxin F6/10 handheld homogenizer), and the solution was placed at 37° C. for 2 h. The tumor tissue homogenate could effectively activate the polypeptide conjugate and release Belotecan, and the activation efficiencies of the drugs in tumor tissues were compared by HPLC allowing determination of a decrease in the compounds and an increase in Belotecan:
Release percentage=peak area of Belotecan/total peak area of Belotecan and all other Belotecan-containing compounds

[9] = Tumor homogenate activation efficiency, sarcoma tissue (Examples 28, 37); format: in vitro ADME; conditions: pH 5.0, 37° C., 2 h
Procedure, shortened: as §2

[10] = Tumor homogenate activation efficiency, breast cancer tissue (Examples 28, 37); format: in vitro ADME; conditions: pH 5.0, 37° C., 2 h
Procedure, shortened: as §2

[11] = 15 mg/kg once a week for four weeks, Table 8
[12] = 45 mg/kg once a week for four weeks, Table 8
[13] = 15 mg/kg once a week for four weeks, Table 3
[14] = 45 mg/kg once a week for four weeks, Table 3
[15] = Table 14 (Example 43), dose 45 mg/kg, once a week for four weeks, BALB/c mice

CC[C@@]1(O)C(=O)OCc2c1cc1n(c2=O)Cc2c-1nc1ccccc1c2CCN(CC(C)C)C(=O)[C@H](CC(C)C)NC(=O)[C@H](CC(N)=O)NC(=O)[C@H](C)NC(=O)[C@H](C)NC(=O)CCOCCOCCOCCOCCOCCOCCNC(=O)CCN1C(=O)C=CC1=O [MI-6PEG-AANL-D5] ({Propanoyl(3-maleimido)-PEG6}-AANL-X5)
A2780 (ovarian cancer) mean tumor volume (mm^3) Day 1 [1]: 134.01 mm^3 | A2780 (ovarian cancer) mean tumor volume (mm^3) Day 4 [1]: 254.52 mm^3 | A2780 (ovarian cancer) mean tumor volume (mm^3) Day 7 [1]: 612.55 mm^3 | A2780 (ovarian cancer) mean tumor volume (mm^3) Day 10 [1]: 730.28 mm^3 | A2780 (ovarian cancer) mean tumor volume (mm^3) Day 14 [1]: 1116.71 mm^3 | Growth rate (%) of A2780 (ovarian cancer) on Day 14 [1]: 833.30% | Mouse weight (%) on Day 14 [1]: +7.9% | Percentage of release efficiency (%) Heart tissue ([2]; Table 10): 5.5% | IC50 Ovarian cancer tissue (A2780) (A2780 (ovarian cancer); CCK8, 48 h, Table 6): 1.13 µg/mL (≈ 0.867 µM) | IC50 Breast cancer tissue (SKBR3) ([3]; CCK8, 48 h, Table 6): 2.20 µg/mL (≈ 1.69 µM) | IC50 Sarcoma tissue (SJSA-1) (SJSA-1 (sarcoma tissue); CCK8, 48 h, Table 6): 1.58 µg/mL (≈ 1.21 µM) | IC50 Non-small cell lung cancer tissue (A549) ([4]; CCK8, 48 h, Table 6): 1.34 µg/mL (≈ 1.03 µM) | Mouse weight (%) [5, 11]: +19% | colo320 (colorectal cancer cell) growth rate (%) [5, 11]: 1027.54% | colo320 (colorectal cancer cell) mean tumor volume (mm^3) [5, 11]: 1257.2 mm^3 | Mouse weight (%) [5, 12]: +19% | colo320 (colorectal cancer cell) growth rate (%) [5, 12]: 643.05% | colo320 (colorectal cancer cell) mean tumor volume (mm^3) [5, 12]: 755.9 mm^3 | Percentage of release efficiency (%) Non-small cell lung cancer tissue (A549) ([6]; Table 10): 85.5% | Percentage of release efficiency (%) Ovarian cancer tissue (A2780) ([7]; Table 10): 74.3% | Percentage of release efficiency (%) Colorectal cancer tissue (colo320) [8]: 69.8% | Percentage of release efficiency (%) Sarcoma tissue (SJSA1) ([9]; Table 10): 77.5% | Percentage of release efficiency (%) Breast cancer tissue (SKBR3) ([10]; Table 10): 70.2%

CC[C@@]1(O)C(=O)OCC2=C1C=C1c3nc4ccccc4c(CCN(C(=O)OCc4ccc(NC(=O)[C@H](CC(N)=O)NC(=O)[C@H](C)NC(=O)[C@H](C)NC(=O)CCOCCOCCOCCOCCOCCOCCNC(=O)CCN5C(=O)C=CC5=O)cc4)C(C)C)c3CN1C2 [MI-6PEG-AAN-PAB-Belotecan]
A2780 (ovarian cancer) mean tumor volume (mm^3) Day 1 [1]: 151.03 mm^3 | A2780 (ovarian cancer) mean tumor volume (mm^3) Day 4 [1]: 282.87 mm^3 | A2780 (ovarian cancer) mean tumor volume (mm^3) Day 7 [1]: 579.35 mm^3 | A2780 (ovarian cancer) mean tumor volume (mm^3) Day 10 [1]: 837.75 mm^3 | A2780 (ovarian cancer) mean tumor volume (mm^3) Day 14 [1]: 1135.00 mm^3 | Growth rate (%) of A2780 (ovarian cancer) on Day 14 [1]: 751.51% | Mouse weight (%) on Day 14 [1]: +1.2% | Percentage of release efficiency (%) Heart tissue ([2]; Table 5): 2.7% | IC50 A2780 (ovarian cancer) (A2780 (ovarian cancer); 48 h): 0.34 µg/mL (≈ 0.259 µM) | IC50 SKBR3 (breast cancer tissue) ([3]; 48 h): 0.40 µg/mL (≈ 0.305 µM) | IC50 SJSA-1 (sarcoma tissue) (SJSA-1 (sarcoma tissue); 48 h): 0.26 µg/mL (≈ 0.198 µM) | IC50 A549 (non-small cell lung cancer) ([4]; 48 h): 0.39 µg/mL (≈ 0.297 µM) | Mouse weight (%) [5, 13]: +29% | colo320 (colorectal cancer cell) growth rate (%) [5, 13]: 1105.40% | colo320 (colorectal cancer cell) mean tumor volume (mm^3) [5, 13]: 1224.3 mm^3 | Mouse weight (%) [5, 14]: +6% | colo320 (colorectal cancer cell) growth rate (%) [5, 14]: 573.97% | colo320 (colorectal cancer cell) mean tumor volume (mm^3) [5, 14]: 635.7 mm^3 | Mouse weight (%) [5, 15]: +6% | colo320 (colorectal cancer cell) growth rate (%) [5, 15]: 573.97% | colo320 (colorectal cancer cell) mean tumor volume (mm^3) [5, 15]: 635.7 mm^3 | Percentage of release efficiency (%) Non-small cell lung cancer tissue (A549) ([6]; Table 5): 79.9% | Percentage of release efficiency (%) Ovarian cancer tissue (A2780) ([7]; Table 5): 75.3% | Percentage of release efficiency (%) Sarcoma tissue (SJSA1) ([9]; Table 5): 78.5% | Percentage of release efficiency (%) Breast cancer tissue (SKBR3) ([10]; Table 5): 69.4%
